How the values were obtained:
[1] = biological target: T1, Activated human p38α (Homo sapiens, UniProt Q16539); assay: p38MAP kinase inhibition test; format: biochemical; conditions: at a concentration of 1 μmol/L; substrate myelin basic protein, ATP 20 μmol/L, [γ-32P]ATP; read-out: enzyme inhibitory activity
T1 construct: purchased Upstate Biotechnology Inc. 14-251
In short: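 Radiometric kinase assay with myelin basic protein (20 μg/assay) as substrate, 20 μmol/L ATP plus [γ-32P]ATP, MOPS pH 7.2 with MgCl2 18.75 mmol/L. Reaction run 15 min at 30° C., stopped with phosphoric acid; 32P-MBP captured on phosphocellulose and counted by scintillation.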

T1 sequence (Q16539 whole entry): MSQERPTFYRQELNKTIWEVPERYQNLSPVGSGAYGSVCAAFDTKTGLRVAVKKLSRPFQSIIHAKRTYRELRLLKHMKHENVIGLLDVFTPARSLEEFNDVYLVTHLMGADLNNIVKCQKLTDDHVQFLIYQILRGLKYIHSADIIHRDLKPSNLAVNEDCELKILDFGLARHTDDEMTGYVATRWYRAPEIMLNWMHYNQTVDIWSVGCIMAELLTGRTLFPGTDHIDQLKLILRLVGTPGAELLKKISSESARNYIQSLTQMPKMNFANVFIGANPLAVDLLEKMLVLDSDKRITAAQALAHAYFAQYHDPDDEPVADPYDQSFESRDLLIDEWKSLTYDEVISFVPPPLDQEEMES

SMILES | inhibition at 1 µM [1] [%] | melting point [°C]
CC(C)Nc1ncc2cc(-c3cccc(NC(=O)c4cc(F)cc(N5CCCC5)c4)c3)c(O)cc2n1 [Compound 351, 6-{3-[3-Fluoro-5-(pyrrolidin-1-yl)benzoylamino]phenyl}-7-hydroxy-2-(isopropylamino)quinazoline] | ≥ 50 | 229
CC[C@H](C)Nc1ncc2cc(-c3cccc(NC(=O)c4ccnc(N5CCOCC5)c4)c3)c(O)cc2n1 [Compound 363, (S)-2-(sec-butylamino)-7-hydroxy-6-{3-[(2-morpholinopyridin-4-yl)carbonylamino]phenyl}quinazoline] | ≥ 50 | 183 to 184
CCC(CC)Nc1ncc2cc(-c3cccc(NC(=O)c4cccc(N(C)C)c4)c3)c(O)cc2n1 [Compound 366, 6-{3-[(3-Dimethylaminophenyl)carbonylamino]phenyl}-2-(3-pentylamino)-7-hydroxyquinazoline] | ≥ 50 | 152
CCC(CC)Nc1ncc2cc(-c3cccc(NC(=O)c4ccnc(N5CCOCC5)c4)c3)c(O)cc2n1 [Compound 368, 2-(3-Pentylamino)-7-hydroxy-6-{3-[(2-morpholinopyridin-4-yl)carbonylamino]phenyl}quinazoline] | ≥ 50 | 154 to 155

Results, then the molecule that gave them:

inhibition at 1 µM [1] [%] | melting point [°C] | SMILES
≥ 50 | 226 to 227 | CC(C)Nc1ncc2cc(-c3cccc(NC(=O)c4ccnc(N5CCCCC5)c4)c3)c(O)cc2n1 [Compound 349, 7-Hydroxy-2-isopropylamino-6-{3-[(2-piperidinopyridin-4-yl)carbonylamino]phenyl}quinazoline]
≥ 50 | 158 to 161 | CONC(=O)c1ccc(C)c(-c2cc3cnc(NC(C)C)nc3cc2O)c1 [Compound 353, 7-Hydroxy-2-isopropylamino-6-(5-methoxycarbamoyl-2-methylphenyl)quinazoline]
≥ 50 | 243 to 245 | CC(C)Nc1ncc2cc(-c3cccc(NC(=O)c4ccnc(-c5ccc(F)cc5)c4)c3)c(O)cc2n1 [Compound 355, 6-{3-[2-(4-Fluorophenyl)pyridin-4-ylcarbonylamino]phenyl}-7-hydroxy-2-(isopropylamino)quinazoline]
≥ 50 | 173 to 175 | Cc1ccc(-n2nc(C)cc2NC(=O)c2ccc(C)c(-c3cc4cnc(NC(C)C)nc4cc3O)c2)cc1 [Compound 357, 7-Hydroxy-2-isopropylamino-6-{2-methyl-5-[5-methyl-2-(4-methylphenyl)-2H-pyrazol-3-ylcarbamoyl]phenyl}quinazoline]
≥ 50 | 153 | CC[C@H](C)Nc1ncc2cc(-c3cc(C(=O)NC4CC4)ccc3C)c(O)cc2n1 [Compound 361, (S)-2-(sec-Butylamino)-6-(5-cyclopropylcarbamoyl-2-methylphenyl)-7-hydroxyquinazoline]
≥ 50 | 210 | CCC(CC)Nc1ncc2cc(-c3cc(C(=O)NC4CC4)ccc3C)c(O)cc2n1 [Compound 365, 6-(5-Cyclopropylcarbamoyl-2-methylphenyl)-2-(3-pentylamino)-7-hydroxyquinazoline]

Source: patent US7906522B2, “2-aminoquinazoline derivatives” (Kyowa Hakko Kirin Co., Ltd, priority 2005, dated 2011)
